Results taken from patent publication US8802597B2, “Herbicidal pyrimidines” (E I du Pont de Nemours and Company, priority 2003, dated 2014).
Where two headings read alike, the source gives them in different places.

How the values were obtained:
Assay in all cases: Test C pre/postemergence
Format in all cases: in vivo
[1] = test system: morningglory (Ipomoea coccinea); details: Ipomoea; for pest or weed control at 62 g/ha: 62 g ai/ha; for pest or weed control at 125 g/ha: 125 g ai/ha; for pest or weed control at 250 g/ha: 250 g ai/ha; for pest or weed control at 500 g/ha: 500 g ai/ha
In short: (§1)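 We sprayed seeded pots preemergence and 2–18 cm seedlings postemergence with test chemicals in a non-phytotoxic solvent mixture including surfactant. Greenhouse plants were visually compared with untreated controls at 12 to 14 days and scored 0 (no effect) to 100 (complete control).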

[2] = test system: yellow nutsedge (Cyperus esculentus); details: Cyperus; for pest or weed control at 62 g/ha: 62 g ai/ha; for pest or weed control at 125 g/ha: 125 g ai/ha; for pest or weed control at 250 g/ha: 250 g ai/ha; for pest or weed control at 500 g/ha: 500 g ai/ha
In short: as §1

[3] = test system: eastern black nightshade (Solanum ptycanthum); details: Solanum, pre-emergence, Preemergence, read-out: Plant response rating, Nightshade
In short: as §1

[4] = test system: cocklebur (Xanthium strumarium); details: Xanthium strumarium; for pest or weed control at 62 g/ha: 62 g ai/ha; for pest or weed control at 125 g/ha: 125 g ai/ha; for pest or weed control at 250 g/ha: 250 g ai/ha; for pest or weed control at 500 g/ha: 500 g ai/ha
In short: as §1

[5] = test system: velvetleaf (Abutilon theophrasti); details: Abutilon theophrasti; for pest or weed control at 62 g/ha: 62 g ai/ha; for pest or weed control at 125 g/ha: 125 g ai/ha; for pest or weed control at 250 g/ha: 250 g ai/ha; for pest or weed control at 500 g/ha: 500 g ai/ha
In short: as §1

[6] = test system: pigweed (Amaranthus retroflexus); details: Amaranthus retroflexus; for pest or weed control at 62 g/ha: 62 g ai/ha; for pest or weed control at 125 g/ha: 125 g ai/ha; for pest or weed control at 250 g/ha: 250 g ai/ha; for pest or weed control at 500 g/ha: 500 g ai/ha
In short: as §1

[7] = post-emergence, Postemergence, scale 0 to 100 (0 no effect, 100 complete control), read-out: Morningglory plant response rating
[8] = post-emergence, Postemergence, scale 0 to 100, read-out: Plant response rating, Morningglory
[9] = pre-emergence, Preemergence, scale 0 to 100, read-out: Plant response rating, Morningglory
[10] = post-emergence, Postemergence, scale 0 to 100 (0 no effect, 100 complete control), read-out: Nutsedge, Yellow plant response rating
[11] = post-emergence, Postemergence, scale 0 to 100, read-out: Plant response rating, Nutsedge, Yellow
[12] = pre-emergence, Preemergence, scale 0 to 100, read-out: Plant response rating, Nutsedge, Yellow
[13] = post-emergence, Postemergence, scale 0 to 100 (0 no effect, 100 complete control), read-out: Cocklebur plant response rating
[14] = post-emergence, Postemergence, scale 0 to 100, read-out: Plant response rating, Cocklebur
[15] = pre-emergence, Preemergence, scale 0 to 100, read-out: Plant response rating, Cocklebur
[16] = post-emergence, Postemergence, scale 0 to 100 (0 no effect, 100 complete control), read-out: Velvetleaf plant response rating
[17] = post-emergence, Postemergence, scale 0 to 100, read-out: Plant response rating, Velvetleaf
[18] = pre-emergence, Preemergence, scale 0 to 100, read-out: Plant response rating, Velvetleaf
[19] = post-emergence, Postemergence, scale 0 to 100 (0 no effect, 100 complete control), read-out: Pigweed plant response rating
[20] = post-emergence, Postemergence, scale 0 to 100, read-out: Plant response rating, Pigweed
[21] = pre-emergence, Preemergence, scale 0 to 100, read-out: Plant response rating, Pigweed

CNc1nc(C2CC2)nc(C(=O)OC)c1Br [Compound 5]
pest or weed control at 62 g/ha [1, 7]: 95% | pest or weed control at 125 g/ha [1, 7]: 95% | pest or weed control at 250 g/ha [1, 8]: 100% | pest or weed control at 500 g/ha [1, 8]: 100% | pest or weed control at 62 g/ha ([1]; pre-emergence, Preemergence, scale 0 to 100, 0 no effect, 100 complete control, read-out: Plant response rating, Morningglory): 50% | pest or weed control at 125 g/ha [1, 9]: 80% | pest or weed control at 250 g/ha [1, 9]: 90% | pest or weed control at 500 g/ha [1, 9]: 100% | pest or weed control at 62 g/ha [2, 10]: 0% | pest or weed control at 125 g/ha [2, 10]: 0% | pest or weed control at 250 g/ha [2, 11]: 0% | pest or weed control at 500 g/ha [2, 11]: 0% | pest or weed control at 62 g/ha ([2]; pre-emergence, Preemergence, scale 0 to 100, 0 no effect, 100 complete control, read-out: Plant response rating, Nutsedge, Yellow): 0% | pest or weed control at 125 g/ha [2, 12]: 0% | pest or weed control at 250 g/ha [2, 12]: 0% | pest or weed control at 500 g/ha [2, 12]: 0% | pest or weed control at 62 g/ha ([3]; 62 g ai/ha, scale 0 to 100, 0 no effect, 100 complete control): 100% | pest or weed control at 125 g/ha ([3]; 125 g ai/ha, scale 0 to 100): 100% | pest or weed control at 250 g/ha ([3]; 250 g ai/ha, scale 0 to 100): 100% | pest or weed control at 500 g/ha ([3]; 500 g ai/ha, scale 0 to 100): 100% | pest or weed control at 62 g/ha [4, 13]: 80% | pest or weed control at 125 g/ha [4, 13]: 95% | pest or weed control at 250 g/ha [4, 14]: 100% | pest or weed control at 500 g/ha [4, 14]: 100% | pest or weed control at 62 g/ha ([4]; pre-emergence, Preemergence, scale 0 to 100, 0 no effect, 100 complete control, read-out: Plant response rating, Cocklebur): 10% | pest or weed control at 125 g/ha [4, 15]: 90% | pest or weed control at 250 g/ha [4, 15]: 100% | pest or weed control at 500 g/ha [4, 15]: 100% | pest or weed control at 62 g/ha [5, 16]: 55% | pest or weed control at 125 g/ha [5, 16]: 90% | pest or weed control at 250 g/ha [5, 17]: 90% | pest or weed control at 500 g/ha [5, 17]: 95% | pest or weed control at 62 g/ha ([5]; pre-emergence, Preemergence, scale 0 to 100, 0 no effect, 100 complete control, read-out: Plant response rating, Velvetleaf): 85% | pest or weed control at 125 g/ha [5, 18]: 85% | pest or weed control at 250 g/ha [5, 18]: 90% | pest or weed control at 500 g/ha [5, 18]: 90% | pest or weed control at 62 g/ha [6, 19]: 85% | pest or weed control at 125 g/ha [6, 19]: 90% | pest or weed control at 250 g/ha [6, 20]: 90% | pest or weed control at 500 g/ha [6, 20]: 100% | pest or weed control at 62 g/ha ([6]; pre-emergence, Preemergence, scale 0 to 100, 0 no effect, 100 complete control, read-out: Plant response rating, Pigweed): 60% | pest or weed control at 125 g/ha [6, 21]: 90% | pest or weed control at 250 g/ha [6, 21]: 100% | pest or weed control at 500 g/ha [6, 21]: 100%
